Each structure is given as a SMILES string.

The results in this text go back to article PMC12621200, “Giving an Enzyme Scissors: Serotonin Derivatives as Potent Organocatalytic Switches for DNA Repair Enzyme OGG1” (Journal of Medicinal Chemistry, 2025).

The target of this experiment is T1, OGG1 (Homo sapiens, UniProt O15527).
T1 construct: made in house
The experiment can be described thus: Biochemical fluorescence (fluorophore-quencher) assay of OGG1 incision rate, 8-oxoA substrate. The following applies: for AC50 / AC50 (CI95%): concentration giving 50% of the incision rate of OGG1 with APE1 (2 nM) control; for AC50: read-out: AC50 (CI95%).

T1 sequence (O15527 whole entry): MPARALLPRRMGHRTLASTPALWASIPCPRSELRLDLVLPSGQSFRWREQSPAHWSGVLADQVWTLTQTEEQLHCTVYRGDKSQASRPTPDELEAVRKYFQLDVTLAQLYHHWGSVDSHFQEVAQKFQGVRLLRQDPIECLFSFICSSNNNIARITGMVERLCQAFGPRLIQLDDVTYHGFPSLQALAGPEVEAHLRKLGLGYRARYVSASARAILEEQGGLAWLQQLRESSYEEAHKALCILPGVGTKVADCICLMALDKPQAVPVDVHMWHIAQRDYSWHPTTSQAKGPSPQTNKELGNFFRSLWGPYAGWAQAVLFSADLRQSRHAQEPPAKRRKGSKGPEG

For the compound `NCCc1c(-c2cccnc2)[nH]c2ccccc12` [Compound 1, 2-(2-(Pyridin-3-yl)-1H-indol-3-yl)-ethan-1-amine], the half-maximal activity concentration (AC50) (as a rule, the midpoint of the concentration-response curve, whichever way the signal moves) is 4.1 µM. Turning to `Cc1ccc2[nH]c(-c3cccnc3)c(CCN)c2c1` [Compound 2, 2-(5-Methyl-2-(pyridin-3-yl)-1H-indol-3-yl)-ethan-1-amine], the “AC50 (CI95%)” value is “inactive”. The same measure, in the same setting: as for `COc1ccc2[nH]c(-c3cccnc3)c(CCN)c2c1` [Compound 3, 2-(5-Methoxy-2-(pyridin-3-yl)-1H-indol-3-yl)-ethan-1-amine], the entry is “inactive”; as for `NCCc1c(-c2cccnc2)[nH]c2ccc(Cl)cc12` [Compound 4, 2-(5-Chloro-2-(pyridin-3-yl)-1H-indol-3-yl)-ethan-1-amine], “inactive”. The same measure, in the same setting: as for `Cc1cccc2c(CCN)c(-c3cccnc3)[nH]c12` [Compound 5, 2-(7-Methyl-2-(pyridin-3-yl)-1H-indol-3-yl)-ethan-1-amine], the entry is “inactive”. In the case of `NC(Cc1c(-c2cccnc2)[nH]c2ccccc12)C(=O)O` (stereo not drawn) [Compound 6, 2-Amino-3-(2-(pyridin-3-yl)-1H-indol-3-yl)-propanoic Acid], the “OGG1 activation, SAR result in words” value was “abolished activity” and the “AC50 (CI95%)” value was “inactive”. For `NCCc1c(-c2ccccc2)[nH]c2ccccc12` [Compound 7, 2-Phenyltryptamine] the same measures were “complete loss of activity” and “inactive”. For the compound `NCCc1c(-c2ccccc2)[nH]c2ccc(O)cc12` [Compound 8, 5-Hydroxy-2-phenyltryptamine], the “OGG1 activation, SAR result in words” value was “showed potency” and the AC50 came to 4 µM. In the case of `NCCc1c(-c2ccccc2)[nH]c2cc(F)ccc12` [Compound 9, 6-Fluoro-2-phenyltryptamine], the “AC50 (CI95%)” value was “inactive”. As to `c1cncc(-c2cc3ccccc3[nH]2)c1` [Compound 10, 2-(Pyridin-3-yl)-1H-indole], the AC50 worked out at 1.7 µM. On the same count and under the same terms, the figure for `Cc1ccc2[nH]c(-c3cccnc3)cc2c1` [Compound 11, 5-Methyl-2-(pyridin-3-yl)-1H-indole] is 5.7 µM; for `Fc1ccc2[nH]c(-c3cccnc3)cc2c1` [Compound 12, 5-Fluoro-2-(pyridin-3-yl)-1H-indole] it is 1.9 µM. Take `Brc1ccc2[nH]c(-c3cccnc3)cc2c1` [Compound 13, 5-Bromo-2-(pyridin-3-yl)-1H-indole]: the AC50 was 1 µM. On the same count and under the same terms, the figure for `COc1ccc2[nH]c(-c3cccnc3)cc2c1` [Compound 14, 5-Methoxy-2-(pyridin-3-yl)-1H-indole] is 13 µM; for `Oc1ccc2[nH]c(-c3cccnc3)cc2c1` [Compound 15, 2-(Pyridin-3-yl)-1H-indol-5-ol] it is 6 µM. The same measure, in the same setting: as for `Fc1cncc(-c2cc3ccccc3[nH]2)c1` [Compound 16, 2-(5-Fluoropyridin-3-yl)-1H-indole], the figure is 1.4 µM.

Regarding `Fc1ccc(-c2cc3ccccc3[nH]2)cn1` [Compound 17, 2-(6-Fluoropyridin-3-yl)-1H-indole], the “AC50 (CI95%)” value was “inactive”. For `Nc1cncc(-c2cc3ccccc3[nH]2)c1` [Compound 18], the AC50 is greater than 100 µM.

As to `Nc1ccc(-c2cc3ccccc3[nH]2)cn1` [Compound 19, 5-(1H-Indol-2-yl)-pyridin-2-amine], the AC50 was found to be 9.3 µM. On the same count and under the same terms, the figure for `Oc1cncc(-c2cc3ccccc3[nH]2)c1` [Compound 20, 5-(1H-Indol-2-yl)-pyridin-3-ol] is 2.8 µM. `Oc1ccc(-c2cc3ccccc3[nH]2)cn1` [Compound 21, 5-(1H-Indol-2-yl)-pyridin-2-ol]: the “AC50 (CI95%)” value is “inactive”.

On to `Clc1ccc(-c2cc3ccccc3[nH]2)cn1` [Compound 22, 2-(6-Chloropyridin-3-yl)-1H-indole], for which the “AC50 (CI95%)” value is “inactive”. As to `Cc1ccc(-c2cc3ccccc3[nH]2)cn1` [Compound 23, 2-(6-Methylpyridin-3-yl)-1H-indole], the AC50 came to 14 µM. On to `c1ccc2[nH]c(-c3ccncc3)cc2c1` [Compound 24, (2-Pyridin-4-yl)-1H-indole], for which the “OGG1 activation, SAR result in words” value is “not tolerated” and the “AC50 (CI95%)” value was “inactive”. In the same order, the values of `c1ccc2[nH]c(-c3cncnc3)cc2c1` [Compound 25, 2-(Pyrimidin-5-yl)-1H-indole] are “not tolerated” and “inactive”.

As for `c1ccc2[nH]c(-c3cnc4[nH]ccc4c3)cc2c1` [Compound 26, 5-(1H-Indol-2-yl)-1H-pyrrolo[2,3-b]-pyridine], the AC50 is 1.4 µM. For `c1ccc2ncc(-c3cc4ccccc4[nH]3)cc2c1` [Compound 27, 3-(1H-Indol-2-yl)-quinoline], the “OGG1 activation, SAR result in words” value is “not tolerated” and the “AC50 (CI95%)” value is “inactive”.

In the case of `c1cncc(-c2cc3ccccc3o2)c1` [Compound 28, 3-(Benzofuran-2-yl)-pyridine], the AC50 was 4.1 µM.

With `NCCc1c(-c2cccnc2)[nH]c2cc(O)ccc12` [Compound 31, 3-(2-Aminoethyl)-2-(pyridin-3-yl)-1H-indol-6-ol], the “AC50 (CI95%)” value is “inactive”. Still for that read-out and setting: the entry for `NCCc1c(-c2cccnc2)[nH]c2c(O)cccc12` [Compound 32, 3-(2-Aminoethyl)-2-(pyridin-3-yl)-1H-indol-7-ol] is “inactive”; for `NCCc1c(-c2cccnc2)[nH]c2cccc(O)c12` [Compound 33, 3-(2-Aminoethyl)-2-(pyridin-3-yl)-1H-indol-4-ol] it is “inactive”. Regarding `NCCc1c(-c2cccnc2)[nH]c2ccc(F)cc12` [Compound 34, 2-(5-Fluoro-2-(pyridin-3-yl)-1H-indol-3-yl)-ethan-1-amine], the “OGG1 activation, SAR result in words” value is given as “tolerated” and the AC50 stood at 6.4 µM. In the same order, the values of `NCCc1c(-c2cccnc2)[nH]c2cc(F)ccc12` [Compound 35, 2-(6-Fluoro-2-(pyridin-3-yl)-1H-indol-3-yl)-ethan-1-amine] are “tolerated” and 5.3 µM. For `NCCc1c(-c2cccnc2)[nH]c2ccc(N)cc12` [Compound 36, 3-(2-Aminoethyl)-2-(pyridin-3-yl)-1H-indol-5-amine], the “OGG1 activation, SAR result in words” value was “not tolerated” and the “AC50 (CI95%)” value was “inactive”. For `NCCc1c(-c2cccnc2)[nH]c2ccc(C(=O)O)cc12` [Compound 37, 3-(2-Aminoethyl)-2-(pyridin-3-yl)-1H-indole-5-carboxylic Acid] the same measures were “not tolerated” and “inactive”. In the same order, the values of `NCc1c(-c2cccnc2)[nH]c2ccc(O)cc12` [Compound 39, 3-(Aminomethyl)-2-(pyridin-3-yl)-1H-indol-5-ol] are “not tolerated” and “inactive”. In the same order, the values of `NCCCc1c(-c2cccnc2)[nH]c2ccc(O)cc12` [Compound 40, 3-(3-Aminopropyl)-2-(pyridin-3-yl)-1H-indol-5-ol] are “not tolerated” and “inactive”. Consider `NCCc1c(-c2ccccn2)[nH]c2ccc(O)cc12` [Compound 42, 3-(2-Aminoethyl)-2-(pyridin-2-yl)-1H-indol-5-ol], for which the “OGG1 activation, SAR result in words” value is “lost activity” and the “AC50 (CI95%)” value was “inactive”.
